One test concerns the target S. pneumoniae Topoisomerase IV ATPase (ParE) (Streptococcus pneumoniae serotype 4, UniProt Q59961). Kind of test: S. pneumoniae Topoisomerase IV ATPase inhibition. To be noted: values marked * are an average of two or more data points, 13 µM. Format: biochemical. The procedure, abridged:
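Malachite green/ammonium molybdate phosphate detection, A650. 1.25 nM ParE, 160 μM ATP, sheared salmon sperm DNA 5 μg/ml, 20 mM Tris pH 8.0, 8.0 mM MgCl2. Controls: 2% DMSO = 0%, 20 μM EDTA = 100% inhibition; IC50 over 10 concentrations.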
Sequence of S. pneumoniae Topoisomerase IV ATPase (ParE) (Q59961 whole entry): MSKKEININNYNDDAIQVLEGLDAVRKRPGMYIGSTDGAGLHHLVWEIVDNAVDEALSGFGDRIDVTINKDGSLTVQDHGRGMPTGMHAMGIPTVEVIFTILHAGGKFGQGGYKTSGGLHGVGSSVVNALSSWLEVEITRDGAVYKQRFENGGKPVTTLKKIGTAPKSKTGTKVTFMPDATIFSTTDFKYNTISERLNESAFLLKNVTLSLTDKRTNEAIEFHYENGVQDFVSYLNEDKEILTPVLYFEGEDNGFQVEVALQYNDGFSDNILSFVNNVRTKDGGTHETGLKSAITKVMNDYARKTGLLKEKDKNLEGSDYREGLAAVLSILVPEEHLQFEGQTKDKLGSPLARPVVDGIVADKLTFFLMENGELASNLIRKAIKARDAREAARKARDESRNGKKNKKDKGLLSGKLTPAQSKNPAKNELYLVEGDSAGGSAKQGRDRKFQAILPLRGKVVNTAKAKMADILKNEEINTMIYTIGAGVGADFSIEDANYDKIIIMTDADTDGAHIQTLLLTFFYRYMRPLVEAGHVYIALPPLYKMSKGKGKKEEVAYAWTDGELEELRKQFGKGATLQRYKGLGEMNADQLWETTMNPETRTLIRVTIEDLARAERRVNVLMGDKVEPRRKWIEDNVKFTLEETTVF
In the case of `COc1ccc(C(=O)O)cc1-c1cnc(Nc2ccc(F)c(Cl)c2)nc1-n1ccc(C(F)(F)F)n1` [Example 1128, 3-(2-(3-chloro-4-fluorophenylamino)-4-(3-(trifluoromethyl)-1H-pyrazol-1-yl)pyrimidin-5-yl)-4-methoxybenzoic acid], the “% Inh (13 μM) of S. pneumoniae Topoisomerase IV ATPase” value is given as 67%.

For `COc1ccc(C(=O)O)cc1-c1cnc(Nc2ccc(F)c(Cl)c2)nc1-n1ccc(C(F)(F)F)n1` [Example 1138, 3-(2-(3-chloro-4-fluorophenylamino)-4-(3-(trifluoromethyl)-1H-pyrazol-1-yl)pyrimidin-5-yl)-4-methoxybenzoic acid], the “% Inh (13 μM) of S. pneumoniae Topoisomerase IV ATPase” value was determined as 94%.

The same test, now with this note: values marked * are an average of two or more data points, read-out: % Inh (13 μM) of S. pneumoniae Topoisomerase IV ATPase.
On to `COc1cc(Nc2ncc(-c3cncc(C(=O)O)c3)c(-n3nc(C)cc3C(F)F)n2)cc(OC)c1` [Example 1127, 5-(4-(5-(difluoromethyl)-3-methyl-1H-pyrazol-1-yl)-2-(3,5-dimethoxyphenylamino)pyrimidin-5-yl)nicotinic acid], for which the inhibition at 13 µM came out at 100%.

As to `O=C(O)/C=C/c1cccc(-c2cnc(Nc3ccc(F)c(Cl)c3)cc2N2CCOCC2)c1` [Example 1129], the inhibition at 13 µM is 83%.

Regarding `COCCOc1ncc(-c2cnc(Nc3ccc(F)c(Cl)c3)nc2-n2nc(C(F)(F)F)cc2C)cc1C(=O)O` [Example 1130, 5-(2-(3-chloro-4-fluorophenylamino)-4-(5-methyl-3-(trifluoromethyl)-1H-pyrazol-1-yl)pyrimidin-5-yl)-2-(2-methoxyethoxy)nicotinic acid], the inhibition at 13 µM is 99%.

As to `COc1nc(OC)c(-c2cnc(Nc3ccc(F)c(Cl)c3)nc2-n2nc(C(F)(F)F)cc2C)cc1C(=O)O` [Example 1131, 5-(2-(3-chloro-4-fluorophenylamino)-4-(5-methyl-3-(trifluoromethyl)-1H-pyrazol-1-yl)pyrimidin-5-yl)-2,6-dimethoxynicotinic acid], the inhibition at 13 µM turned out to be 100%.

`COc1nc(OC)c(-c2cnc(Nc3ccc(F)c(Cl)c3)nc2-n2ccc(C(F)(F)F)n2)cc1C(=O)O` [Example 1132, 5-(2-(3-chloro-4-fluorophenylamino)-4-(3-(trifluoromethyl)-1H-pyrazol-1-yl)pyrimidin-5-yl)-2,6-dimethoxynicotinic acid]: the inhibition at 13 µM stood at 100%.

For the compound `COCCOc1ncc(-c2cnc(Nc3ccc(F)c(Cl)c3)nc2-n2ccc(C(F)(F)F)n2)cc1C(=O)O` [Example 1133, 5-(2-(3-chloro-4-fluorophenylamino)-4-(3-(trifluoromethyl)-1H-pyrazol-1-yl)pyrimidin-5-yl)-2-(2-methoxyethoxy)nicotinic acid], the inhibition at 13 µM was 100%.

For the compound `Cc1cc(C(F)(F)F)nn1-c1nc(Nc2ccc(F)c(Cl)c2)ncc1-c1cnc(OCCO)c(C(=O)O)c1` [Example 1134, 5-(2-(3-chloro-4-fluorophenylamino)-4-(5-methyl-3-(trifluoromethyl)-1H-pyrazol-1-yl)pyrimidin-5-yl)-2-(2-hydroxyethoxy)nicotinic acid], the inhibition at 13 µM came to 100%.

`O=C(O)c1cc(-c2cnc(Nc3ccc(F)c(Cl)c3)nc2-n2ccc(C(F)(F)F)n2)cnc1OCC(F)(F)F` [Example 1135, 5-(2-(3-chloro-4-fluorophenylamino)-4-(3-(trifluoromethyl)-1H-pyrazol-1-yl)pyrimidin-5-yl)-2-(2,2,2-trifluoroethoxy)nicotinic acid]: the inhibition at 13 µM was 100%.

For `COc1cc(Nc2ncc(-c3cnc(OCCN4CCOCC4)c(C(=O)O)c3)c(-n3nc(C(F)(F)F)cc3C)n2)cc(OC)c1` [Example 1136, 5-(2-(3,5-dimethoxyphenylamino)-4-(5-methyl-3-(trifluoromethyl)-1H-pyrazol-1-yl)pyrimidin-5-yl)-2-(2-morpholinoethoxy)nicotinic acid], the inhibition at 13 µM stood at 99%.

For `O=C(O)Cn1nccc1-c1cnc(Nc2ccc(F)c(Cl)c2)nc1-n1ccc(C(F)(F)F)n1` [Example 1137, 2-(5-(2-(3-chloro-4-fluorophenylamino)-4-(3-(trifluoromethyl)-1H-pyrazol-1-yl)pyrimidin-5-yl)-1H-pyrazol-1-yl)acetic acid], the inhibition at 13 µM came out at 100%.

`COc1c(C(=O)O)cccc1-c1cnc(Nc2ccc(F)c(Cl)c2)nc1-n1ccc(C(F)(F)F)n1` [Example 1139, 3-(2-(3-chloro-4-fluorophenylamino)-4-(3-(trifluoromethyl)-1H-pyrazol-1-yl)pyrimidin-5-yl)-2-methoxybenzoic acid]: the inhibition at 13 µM amounted to 96%.

Turning to `O=C(O)c1cc(-c2cnc(Nc3ccc(F)c(Cl)c3)nc2-n2ccc(C(F)(F)F)n2)cnc1OCCN1CCOCC1` [Example 1140, 5-(2-(3-chloro-4-fluorophenylamino)-4-(3-(trifluoromethyl)-1H-pyrazol-1-yl)pyrimidin-5-yl)-2-(2-morpholinoethoxy)nicotinic acid], the inhibition at 13 µM was 100%.

Take `Cc1cc(C(F)(F)F)nn1-c1nc(Nc2ccc(F)c(Cl)c2)ncc1-c1cnc(OCCN2CCOCC2)c(C(=O)O)c1` [Example 1141, 5-(2-(3-chloro-4-fluorophenylamino)-4-(5-methyl-3-(trifluoromethyl)-1H-pyrazol-1-yl)pyrimidin-5-yl)-2-(2-morpholinoethoxy)nicotinic acid]: the inhibition at 13 µM turned out to be 100%.

Consider `COc1ncc(C(=O)O)cc1-c1cnc(Nc2cc(C)cc(C)c2)nc1-n1nc(C(F)(F)F)cc1C` [Example 1142, 5-(2-(3,5-dimethylphenylamino)-4-(5-methyl-3-(trifluoromethyl)-1H-pyrazol-1-yl)pyrimidin-5-yl)-6-methoxynicotinic acid], for which the inhibition at 13 µM amounted to 100%.

Consider `COc1cc(Nc2ncc(-c3cnc(OC)c(C(=O)O)c3)c(-n3ccc(C4CC4)n3)n2)cc(OC)c1` [Example 1143, 5-(4-(3-cyclopropyl-1H-pyrazol-1-yl)-2-(3,5-dimethoxyphenylamino)pyrimidin-5-yl)-2-methoxynicotinic acid], for which the inhibition at 13 µM is 100%.

`COc1cc(Nc2ncc(-c3cnc(OC)c(C(=O)O)c3)c(-n3nc(C(F)(F)F)nc3C)n2)cc(OC)c1` [Example 1144, 5-(2-(3,5-dimethoxyphenylamino)-4-(5-methyl-3-(trifluoromethyl)-1H-1,2,4-triazol-1-yl)pyrimidin-5-yl)-2-methoxynicotinic acid]: the inhibition at 13 µM turned out to be 100%.

In the case of `Cc1cc(C)cc(Nc2ncc(-c3cc(C(=O)O)cnc3OCCN(C)C)c(-n3nc(C(F)(F)F)cc3C)n2)c1` [Example 1145, 6-(2-(dimethylamino)ethoxy)-5-(2-(3,5-dimethylphenylamino)-4-(5-methyl-3-(trifluoromethyl)-1H-pyrazol-1-yl)pyrimidin-5-yl)nicotinic acid], the inhibition at 13 µM was determined as 100%.

Consider `O=C(NCCO)c1cccc(-c2cnc(Nc3ccc(F)c(Cl)c3)nc2-n2ccc(C(F)(F)F)n2)c1` [Example 1146, 3-(2-(3-chloro-4-fluorophenylamino)-4-(3-(trifluoromethyl)-1H-pyrazol-1-yl)pyrimidin-5-yl)-N-(2-hydroxyethyl)benzamide], for which the inhibition at 13 µM was 100%.

Consider `NC(=O)c1cccc(-c2cnc(Nc3ccc(F)c(Cl)c3)nc2-n2ccc(C(F)(F)F)n2)c1` [Example 1147, 3-(2-(3-chloro-4-fluorophenylamino)-4-(3-(trifluoromethyl)-1H-pyrazol-1-yl)pyrimidin-5-yl)benzamide], for which the inhibition at 13 µM worked out at 100%.

For the compound `CN(C)C(=O)c1cccc(-c2cnc(Nc3ccc(F)c(Cl)c3)nc2-n2ccc(C(F)(F)F)n2)c1` [Example 1148, 3-(2-(3-chloro-4-fluorophenylamino)-4-(3-(trifluoromethyl)-1H-pyrazol-1-yl)pyrimidin-5-yl)-N,N-dimethylbenzamide], the inhibition at 13 µM was found to be 24%.

Consider `CON(C)C(=O)c1cccc(-c2cnc(Nc3ccc(F)c(Cl)c3)nc2-n2ccc(C(F)(F)F)n2)c1` [Example 1149, 3-(2-(3-chloro-4-fluorophenylamino)-4-(3-(trifluoromethyl)-1H-pyrazol-1-yl)pyrimidin-5-yl)-N-methoxy-N-methylbenzamide], for which the inhibition at 13 µM stood at 100%.

With `CC(=O)Nc1cc(C(=O)O)cc(-c2cnc(Nc3ccc(F)c(Cl)c3)nc2-n2ccc(C(F)(F)F)n2)c1` [Example 1150, 3-acetamido-5-(2-(3-chloro-4-fluorophenylamino)-4-(3-(trifluoromethyl)-1H-pyrazol-1-yl)pyrimidin-5-yl)benzoic acid], the inhibition at 13 µM amounted to 100%.

With `O=C(c1cccc(-c2cnc(Nc3ccc(F)c(Cl)c3)nc2-n2ccc(C(F)(F)F)n2)c1)N1CCOCC1` [Example 1151, (3-(2-(3-chloro-4-fluorophenylamino)-4-(3-(trifluoromethyl)-1H-pyrazol-1-yl)pyrimidin-5-yl)phenyl)(morpholino)methanone], the inhibition at 13 µM amounted to 100%.

Turning to `COc1cc(Nc2ncc(-c3cnc(OC)c(C(=O)NS(C)(=O)=O)c3)c(-n3ccc(C4CC4)n3)n2)cc(OC)c1` [Example 1152, 5-(4-(3-cyclopropyl-1H-pyrazol-1-yl)-2-(3,5-dimethoxyphenylamino)pyrimidin-5-yl)-2-methoxy-N-(methylsulfonyl)nicotinamide], the inhibition at 13 µM worked out at 100%.

`COc1cc(Nc2ncc(-c3cnc(OC)c(C(=O)NS(C)(=O)=O)c3)c(-n3nc(C(F)(F)F)nc3C)n2)cc(OC)c1` [Example 1153, 5-(2-(3,5-dimethoxyphenylamino)-4-(5-methyl-3-(trifluoromethyl)-1H-1,2,4-triazol-1-yl)pyrimidin-5-yl)-2-methoxy-N-(methylsulfonyl)nicotinamide]: the inhibition at 13 µM came to 100%.

`O=C(O)/C=C/c1cncc(-c2cnc(Nc3ccc(F)c(Cl)c3)nc2-n2ccc(C(F)(F)F)n2)c1` [Example 1156, (E)-3-(5-(2-(3-chloro-4-fluorophenylamino)-4-(3-(trifluoromethyl)-1H-pyrazol-1-yl)pyrimidin-5-yl)pyridin-3-yl)acrylic acid]: the inhibition at 13 µM amounted to 88%.

For `COCCn1cc(-c2cnc(Nc3cc(OC)cc(OC)c3)nc2-n2ccc(C(F)(F)F)n2)cc(C(=O)O)c1=O` [Example 1159], the inhibition at 13 µM was found to be 100%.

The record behind these values is patent publication US20100137313A1 (ASTRAZENECA AB, priority 2008, published 2010).
